Source: patent US20210024879A1, “BIOSYNTHETIC ACTIVITY OF THE ANAPLASMA PHAGOCYTOPHILUM AND EHRLICHIA CHAFFEENSIS PHAGOSOME IN A HOST CELL-FREE MEDIUM” (Kansas State University Research Foundation, priority 2018, published 2021)

Assays:
[1] = tested on: E. chaffeensis cell-free organisms (DC and RC fractions); assay: Protein synthesis by 35S-cysteine-methionine incorporation in cell-free E. chaffeensis in axenic medium; format: cell-based, Ehrlichia chaffeensis; conditions: for protein synthesis (35S Cys-Met incorporation) when inhibitor included in the media: axenic media with G6P, 24 h, renografin-purified organisms, FIG. 1; for protein biosynthesis with different energy sources: RC form recovered from DH82 cultures, axenic medium supplemented with the carbon source, FIGS. 5A and 5B
Experimental: Protein synthesis by ^35S-cysteine-methionine incorporation: Protein synthesis in cell-free purified fractions of E. chaffeensis was measured by incorporation of ^35S-Cys-Met (Perkin Elmer, Waltham, Mass.) as described by Omsland, A., et al., in Developmental stage-specific metabolic and transcriptional activity of Chlamydia trachomatis in an axenic medium. Proc Natl Acad Sci USA. […] For normalization of bacterial total protein content, the suspension of E. chaffeensis cell-free fractions were lysed in 1% (wt/vol) SDS for 5 minutes at 100° C. and the total protein concentration was determined using Protein Assay kit (Bio-Rad, Hercules, Calif.). Subsequently, the suspensions of E. chaffeensis cell-free fractions were equally split into micro-centrifuge tubes at the amount of 30 μg total protein. Partially opened micro-centrifuge tubes containing 500 μL of medium supplemented with 70 μCi of ^35S-Cys-Met were incubated at 37° C. for 24 hours in a tri-gas incubator set to maintain 2.5% O2. E. chaffeensis cell-free organisms were pelleted at the end of incubation by centrifugation at 15,000×g for 15 minutes at 4° C., washed with K-36 buffer (0.05M K2HPO4, 0.05M KH2PO4, 0.1M KCl, 0.15M NaCl, pH7.0) twice, and disrupted by adding 30 μL of 2×SDS-PAGE sample buffer and by boiling for 5 minutes. Ten μL of lysate each was then transferred to a tube containing 5 mL of biosafe liquid II and used for quantification of ^35S-Cys-Met incorporation using the protocol 4 (^35S) in a liquid scintillation counter (TRI-CARB 2100TR, PerkinElmer, Waltham, Mass.). For visualizing the radiolabel incorporation into bacterial proteins, equal volumes of sample lysates were also separated in an SDS/PAGE and the gel was dried and exposed to an X-ray film. Similarly, cell-free growth experiments were carried out in the absence of ^35S-Cys-Met, resolved on an SDS-PAGE gel, and stained using silver nitrate staining kit (Pierce/ThermoFisher Scientific) as per the manufacturer's recommendations.

[2] = tested on: A. phagocytophilum cell-free phagosomes; assay: 35S Cys-Met incorporation into cell-free phagosomes; format: cell-based, Anaplasma phagocytophilum; conditions: energy source or CHL in axenic medium
Experimental: (§1) Protein synthesis by ^35S-cysteine-methionine incorporation: Protein synthesis in cell-free purified phagosomes of A. phagocytophilum or E. chaffeensis was measured by incorporation of […] (Perkin Elmer, Waltham, Mass.) as described previously. For normalization of bacterial total protein content, the suspension of the cell-free phagosomes were lysed in 1% (wt/vol) SDS for 5 minutes at 100° C. and the total protein concentration was determined using Protein Assay kit (Bio-Rad, Hercules, Calif.). Subsequently, the suspensions of cell-free phagosomes were equally split into micro-centrifuge tubes at the amount of 30 μg total protein. Partially opened micro-centrifuge tubes containing 500 μL of medium supplemented with 70 μCi of ^35S-Cys-Met were incubated 24 hours at 37° C. in a tri-gas incubator set to maintain 2.5% O2. The cell-free organisms were pelleted at the end of incubation by centrifugation at 15,000×g for 15 minutes at 4° C., washed with K-36 buffer (0.05M K2HPO4, 0.05M KH2PO4, 0.1M KCl, 0.15M NaCl, pH7.0) twice, and disrupted by adding 30 μL of 2×SDS-PAGE sample buffer and by boiling for 5 minutes. Ten μL of lysate each was then transferred to a tube containing 5 mL of biosafe liquid II and used for quantification of ^35S-Cys-Met incorporation using the protocol 4 (^35S) in a liquid scintillation counter (TRI-CARB 2100TR, PerkinElmer, Waltham, Mass.). For visualizing the of radiolabel incorporation into phagosomes proteins, equal volumes of sample lysates were also separated in an SDS/PAGE and the gel was dried and exposed to an X-ray film. Similarly, cell-free growth experiments were carried out in the absence of added ^35S-Cys-Met, resolved on an SDS-PAGE gel and stained using silver nitrate staining kit (Pierce/ThermoFisher Scientific) as per the manufacturer's recommendations.

[3] = tested on: E. chaffeensis cell-free phagosomes; assay: as above; format: cell-based, Ehrlichia chaffeensis; conditions: energy source or CHL in axenic medium
Experimental: as §1

[4] = tested on: A. phagocytophilum cell-free phagosome; assay: Protein biosynthesis by protein fractionation, silver stained SDS polyacrylamide gel; format: cell-based, Anaplasma phagocytophilum; conditions: FIGS. 15A and 15B, CHL-containing lanes
Experimental: Sodium dodecyl sulfate polyacrylamide gel electrophoresis: Five μL of NuPAGE LDS sample buffer and 2 μL of NuPAGE reducing agent (Invitrogen/ThermoFisher Scientific) were added to each of 10 μL of sample solution following cell-free incubation experiments in the axenic medium, boiled for 5 minutes, and then loaded onto a Mini-PROTEAN Precast Bis-Tris 4% to 14% gels (Bio-rad, Hercules, Calif.) and subjected to electrophoresis (100 mA/gel for 60 minutes). The gels were then stained with Silver staining kit (Pierce/ThermoFisher Scientific) according to the manufacturer's recommendations.
Western blot analysis to assess protein synthesis: For detection of the DnaK and P28 proteins of E. chaffeensis or the Dnak of A. phagocytophilum, the above described electrophoresed proteins were transferred onto a nitrocellulose membrane (Thermo Fisher Scientific, Waltham, Mass.) by subjecting to electro-blotting using an electrophoretic transfer unit (Bio-Rad). Protein transfer buffer was prepared as per the manufacturer's instructions and used in the protein transfer protocols. Subsequently, E. chaffeensis DnaK and P28 expressions were assessed using the polyclonal rabbit antisera raised against a recombinant E. chaffeensis proteins for DnaK and P28, respectively. […]

SMILES | incorporation of 35S Cys-Met ([2]; FIG. 12A photograph) | incorporation of 35S Cys-Met ([2]; FIG. 12C graph) | incorporation of 35S Cys-Met ([3]; FIG. 12B photograph) | incorporation of 35S Cys-Met ([3]; FIG. 12D graph) | protein biosynthesis with different energy sources [1] | further results
O=C(N[C@H](CO)[C@H](O)c1ccc([N+](=O)[O-])cc1)C(Cl)Cl [CHL, chloramphenicol, reference compound] | no incorporation | no incorporation | no incorporation | no incorporation | – | protein synthesis (35S Cys-Met incorporation) when inhibitor included in the media [1]: abolished; protein synthesis (protein abundance, silver stained gel) [4]: no synthesis
O=C(O)CCC(=O)C(=O)O [alpha ketoglutarate] | – | – | – | – | supported the protein biosynthesis similarly | –
CO[C@H]1/C=C/O[C@@]2(C)Oc3c(C)c(O)c4c(O)c(c(/C=N/N5CCN(C)CC5)c(O)c4c3C2=O)NC(=O)/C(C)=C\C=C\[C@H](C)[C@H](O)[C@@H](C)[C@@H](O)[C@@H](C)[C@H](OC(C)=O)[C@@H]1C [rifampin, reference compound] | – | – | – | – | – | protein synthesis (35S Cys-Met incorporation) when inhibitor included in the media [1]: abolished
O=C[C@H](O)[C@@H](O)[C@H](O)[C@H](O)COP(=O)(O)O [G6P, glucose 6-phosphate] | showed incorporation | showed incorporation | showed incorporation | showed incorporation | supported the protein biosynthesis similarly | –
Nc1ncnc2c1ncn2[C@@H]1O[C@H](COP(=O)(O)OP(=O)(O)OP(=O)(O)O)[C@@H](O)[C@H]1O [ATP, adenosine triphosphate] | showed incorporation | showed incorporation | showed incorporation | showed incorporation | – | –
O[C@H](CS)[C@H](O)CS (racemic) [DTT, Dithiothreitol] | – | – | – | – | – | impact of exclusion of reducing agent on protein biosynthesis ([1]; axenic medium with G6P, absence of DTT, RC fraction): only a marginal negative effect
CC(=O)[O-].[Na+] [sodium acetate] | – | – | – | – | supported the protein biosynthesis similarly | –
